± gives the standard deviation of the averaged measurements.
Experiments:
Assay in all cases: level (log10 ratio to DMSO vehicle control); higher = higher biomarker level / cell amount than vehicle control
Settings in all cases: in DMSO
[1] = compound: O=S(=O)(O)CCC(F)(F)C(F)(F)C(F)(F)C(F)(F)C(F)(F)C(F)(F)F [6:2 Fluorotelomer sulfonic acid]
Method: (§1)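 BioMAP Diversity Plus panel of 12 human primary cell co-culture systems (3C, 4H, LPS, SAg, BT, BF4T, BE3C, CASM3C, HDF3CGF, KF3CT, MyoF, Mphg). Compounds were added 1 h before stimulation and left for 24 h (MyoF 48 h; BT 72 h for soluble read-outs or 6 d for IgG). Biomarkers were read by ELISA, cytotoxicity by SRB, PBMC viability and proliferation by Alamar Blue. Each well value was divided by the mean of 8 DMSO control wells on the same plate and log10 transformed; duplicate blinded samples were tested at 4 concentrations.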

[2] = compound: COC(=O)C(F)(F)C(F)(F)OC(F)(C(F)(F)F)C(F)(F)OC(F)=C(F)F [Methyl perfluoro(3-(1-ethenyloxypropan-2-yloxy)propanoate)]
Method: as §1

Octafluoroadipamide = compound: NC(=O)C(F)(F)C(F)(F)C(F)(F)C(F)(F)C(N)=O [Octafluoroadipamide]
Method: as §1

[3] = compound: O=S(=O)(F)C(F)(F)C(F)(F)C(F)(F)C(F)(F)C(F)(F)C(F)(F)C(F)(F)C(F)(F)F [Perfluorooctanesulfonyl fluoride]
Method: as §1

[4] = compound: FC(F)(F)C(F)(F)C(F)(F)C(F)(F)C(F)(F)C(F)(F)CC1CO1 [3-(Perfluorohexyl)-1,2-epoxypropane]
Method: as §1

Test System	level (log10) ([1]; 6700 nM)	level (log10) ([1]; 20000 nM)	level (log10) ([1]; 60000 nM)	level (log10) ([2]; 6700 nM)	level (log10) ([2]; 20000 nM)	level (log10) (Octafluoroadipamide; 6700 nM)	level (log10) (Octafluoroadipamide; 20000 nM)	level (log10) (Octafluoroadipamide; 60000 nM)	level (log10) ([3]; 6700 nM)	level (log10) ([3]; 20000 nM)	level (log10) ([3]; 60000 nM)	level (log10) ([4]; 6700 nM)	level (log10) ([4]; 20000 nM)	level (log10) ([4]; 60000 nM)
LPS:CD141/Thrombomodulin	0.061 ± 0.03	0.065 ± 0.0057	0.0475 ± 0.021	-0.05 ± 0.0099	-0.071 ± 0.027	-0.029 ± 0.1	0.014 ± 0.076	0.0355 ± 0.056	0.0105 ± 0.025	0.0045 ± 0.0078	0.0055 ± 0.012	-0.0405 ± 0.0035	-0.038 ± 0.0099	-0.0545 ± 0.0064
BT:sIL-17F	0.0005 ± 0.064	0.0725 ± 0.012	0.0155 ± 0.011	-0.027 ± 0.018	-0.064 ± 0.12	0.0465 ± 0.057	0.073 ± 0.05	0.06 ± 0.082	-0.0145 ± 0.032	-0.0345 ± 0.079	0.035 ± 0.12	-0.051 ± 0.15	-0.012 ± 0.096	-0.0315 ± 0.079
BT:Secreted IgG	0.0005 ± 0.054	-0.048 ± 0.031	-0.081 ± 0.048	0.006 ± 0.0014	0.007 ± 0.03	0.0345 ± 0.018	0.037 ± 0.0028	0.0215 ± 0.0078	0.0025 ± 0.026	0.0185 ± 0.0035	0.004 ± 0.03	-0.0085 ± 0.032	-0.0035 ± 0.018	-0.0005 ± 0.018
LPS:CXCL8/IL-8	0.045 ± 0.013	0.072 ± 0.064	0.192 ± 0.1	0.019 ± 0.0042	0.0355 ± 0.019	-0.0035 ± 0.033	0.007 ± 0.0085	0.01 ± 0.013	0.012 ± 0.027	0.011 ± 0.0099	-0.0015 ± 0.005	-0.0205 ± 0.011	-0.0135 ± 0.021	0.0015 ± 0.035
LPS:IL-1alpha	0.007 ± 0.011	0.0225 ± 0.023	0.037 ± 0.05	0.0045 ± 0.022	0.0515 ± 0.011	0.0005 ± 0.012	0.02 ± 0.017	-0.0045 ± 0.00071	0.0065 ± 0.015	0.024 ± 0.016	0.0105 ± 0.012	0.003 ± 0.018	0.012 ± 0.041	0.028 ± 0.027
SAg:CD69	-0.0245 ± 0.059	-0.04 ± 0.024	-0.04 ± 0.0057	-0.0375 ± 0.0092	-0.0735 ± 0.033	-0.0095 ± 0.011	-0.013 ± 0.018	0.002 ± 0.013	-0.0215 ± 0.0064	-0.0105 ± 0.0064	-0.0195 ± 0.0035	0.013 ± 0.0042	0.011 ± 0.011	0.0035 ± 0.00071
BE3C:HLA-DR	-0.0135 ± 0.021	-0.0175 ± 0.012	-0.024 ± 0.0099	-0.0235 ± 0.042	-0.0275 ± 0.032	-0.003 ± 0.0014	-0.0015 ± 0.00071	0.0175 ± 0.037	-0.0105 ± 0.012	-0.0125 ± 0.011	-0.01 ± 0.011	0 ± 0.0099	-0.0025 ± 0.011	0.006 ± 0.017
BE3C:CXCL11/I-TAC	0.037 ± 0.028	0.0585 ± 0.00071	0.067 ± 0.018	-0.038 ± 0.024	-0.192 ± 0.025	-0.0085 ± 0.0035	-0.0155 ± 0.00071	-0.014 ± 0.021	0.005 ± 0.0014	-0.0005 ± 0.012	-0.006 ± 0.011	-0.0115 ± 0.011	-0.02 ± 0.011	-0.009 ± 0.014
BF4T:CD90	-0.029 ± 0.017	-0.028 ± 0.0085	-0.031 ± 0.0042	-0.004 ± 0.017	-0.0045 ± 0.0078	-0.0155 ± 0.0078	-0.0145 ± 0.0021	-0.0125 ± 0.021	-0.0065 ± 0.0078	-0.014 ± 0.0057	0.0065 ± 0.0021	-0.005 ± 0.0042	-0.0055 ± 0.0092	0.0085 ± 0.028
BT:sIL-2	-0.0555 ± 0.011	0.0325 ± 0.018	-0.01 ± 0.031	-0.0335 ± 0.018	-0.059 ± 0.038	0.137 ± 0.073	0.116 ± 0.061	0.126 ± 0.027	-0.038 ± 0.058	-0.001 ± 0.042	0 ± 0.1	-0.0165 ± 0.049	0.0215 ± 0.0035	0.007
LPS:sPGE2	-0.008 ± 0.023	-0.0215 ± 0.047	-0.0345 ± 0.029	-0.015 ± 0.021	0.0015 ± 0.029	0.083 ± 0.037	-0.04 ± 0.018	-0.0165 ± 0.026	0.0045 ± 0.039	-0.0015 ± 0.005	-0.0265 ± 0.056	0.022 ± 0.0057	-0.0655 ± 0.0035	-0.047 ± 0.0099
BT:sIL-6	0.0255 ± 0.039	0.0375 ± 0.016	0.003 ± 0.052	0.016 ± 0.024	0.0175 ± 0.047	0.0215 ± 0.037	0.024 ± 0.0057	0.0065 ± 0.016	-0.055 ± 0.037	-0.021 ± 0.047	-0.037 ± 0.048	0.007 ± 0.079	0.014 ± 0.025	-0.019 ± 0.02
BF4T:MMP-3	-0.0095 ± 0.074	-0.0015 ± 0.0035	0.0515 ± 0.025	0.0165 ± 0.018	0.102 ± 0.021	-0.0145 ± 0.0078	-0.0145 ± 0.015	0.003 ± 0.038	-0.0015 ± 0.0021	-0.0095 ± 0.025	0.026 ± 0.047	0.0155 ± 0.011	0.018 ± 0.024	0.0475 ± 0.03
BF4T:CD54/ICAM-1	-0.0115 ± 0.00071	-0.015 ± 0.021	-0.0095 ± 0.018	-0.0215 ± 0.011	-0.0265 ± 0.0064	-0.015 ± 0.023	-0.017 ± 0.021	0.009 ± 0.016	-0.002 ± 0.0014	-0.006	-0.0045 ± 0.0021	-0.002 ± 0.0057	0.0025 ± 0.0021	0.007
BE3C:EGFR	-0.0075 ± 0.00071	-0.027 ± 0.0085	-0.0095 ± 0.0064	-0.04 ± 0.014	-0.053 ± 0.031	-0.019 ± 0.016	-0.014 ± 0.0099	0.004 ± 0.04	0.0125 ± 0.0064	0.017 ± 0.025	-0.0095 ± 0.012	-0.001 ± 0.0085	-0.0015 ± 0.0035	0.007 ± 0.013
BF4T:MMP-1	-0.0085 ± 0.00071	-0.0125 ± 0.0078	0.0065 ± 0.013	0.0055 ± 0.019	0.0095 ± 0.0021	-0.006 ± 0.0099	-0.0095 ± 0.0021	0.004 ± 0.016	-0.0075 ± 0.00071	-0.0115 ± 0.005	0.001 ± 0.0071	-0.003 ± 0.0057	0.0045 ± 0.0021	0.023 ± 0.027
BF4T:SRB	0.0005 ± 0.00071	-0.003 ± 0.0042	-0.003 ± 0.0057	-0.005 ± 0.016	0.0035 ± 0.026	-0.006 ± 0.0071	-0.002 ± 0.0028	0.001 ± 0.0071	-0.0025 ± 0.0035	-0.002 ± 0.0042	0.0145 ± 0.025	-0.008 ± 0.011	-0.0105 ± 0.0078	0.0015 ± 0.019
BE3C:CD87/uPAR	0.003 ± 0.0014	-0.0065 ± 0.011	0.0235 ± 0.018	0.038 ± 0.038	0.05 ± 0.041	-0.0295 ± 0.043	-0.044 ± 0.071	-0.0195 ± 0.093	-0.0005 ± 0.011	0.0155 ± 0.00071	0.0375 ± 0.0064	0.0085 ± 0.029	0.032 ± 0.037	0.06 ± 0.0028
SAg:PBMC Cytotoxicity	0.0105 ± 0.00071	0 ± 0.0071	0.0305 ± 0.029	-0.0115 ± 0.025	0.028 ± 0.044	0.004 ± 0.014	-0.0095 ± 0.0021	0.01 ± 0.027	-0.0155 ± 0.029	0.0105 ± 0.022	0.011 ± 0.027	0.01 ± 0.037	-0.0055 ± 0.011	0.025 ± 0.0071
SAg:SRB	-0.012 ± 0.0057	-0.0045 ± 0.0021	-0.0045 ± 0.021	0.0035 ± 0.015	0.006 ± 0.0057	-0.011 ± 0.014	-0.0065 ± 0.022	-0.0025 ± 0.0064	0.0055 ± 0.0064	0.0005 ± 0.0021	0.0015 ± 0.0035	-0.007 ± 0.0099	-0.012 ± 0.0042	0.006 ± 0.016
BE3C:IL-1alpha	-0.0095 ± 0.021	-0.005 ± 0.0099	-0.0005 ± 0.0078	-0.0175 ± 0.005	-0.005 ± 0.011	0.0085 ± 0.012	-0.0105 ± 0.0064	0.0145 ± 0.033	0.004 ± 0.0042	-0.0115 ± 0.013	-0.007 ± 0.016	-0.0215 ± 0.0021	-0.003	0 ± 0.0014

Source: the supplement of paper PMC10331698
